Assay results reported in patent US12378249B2, “Isoquinoline compounds and uses thereof” (Genentech, Inc., priority 2018, dated 2025).

Target: HPK1 (Homo sapiens (Human), UniProt Q92918, S171E/T165E)
Assay: HPK1-FL HTRF Enzymatic Assay (HTRF)
Format: biochemical
Conditions: HPK full length T165E S171E 0.125 nM, ATP 1 mM, Biotin-SLP76 100 nM, read-out: HPK1 Ki (nM), H = HTRF
Procedure: Exemplary compounds of Formula (I) were tested to assess compound inhibition of HPK-1. The Ki for each exemplary compound was determined
Example B1: HPK1-FL HTRF Enzymatic Assay (“HTRF”)
HPK-FL enzyme phosphorylates Biotin-SLP-76 substrate in the presence of ATP at 1 mM and varying concentrations of test compound. Product is detected by FRET using Eu-anti-pSLP76 Ab and SA-XL665. Also see www.cisbio.com/HTRF for additional HTRF technology information.
• Echo555 compound dispenser • Agilent Bravo • Perkin Elmer Envision Final Assay Conditions:
Materials: • Assay plate: White ProxiPlate 384 F (PerkinElmer cat #6008289) • Kinase: HPK full length double mutant • Substrate: Biotin-SLP76 • ATP: 100 mM ATP • BSG: 2% BSG • DMSO: DMSO (Sigma cat #34869-100ML) • Reaction Buffer: H2O/50 mM HEPES, pH 7.5/10 mM MgCl2/2 mM TCEP/0.01% Brij-35/0.01% BSG • Detection mix:Eu-anti-pSLP76/SA-XL665 (Cisbio, #610SAXAC) Assay Procedure Ki determination:
To a 384 well Proxiplate with 80 nL compound or DMSO spotted on was added 4 μl/well kinase mix. The mixture was preincubated for 30 minutes and then 4 μl/well substrate mix was added. The solution was incubated for 60 min and then 4 μl/well detection mix was added. The solution was incubated for another 60 min. The plates were then loaded onto a Perkin Elmer Envision and the TR-FRET signal was measured at 615 and 665 nm. A ratio of […] was used to calculate the % activity at each concentration of compound.

Chain of HPK1 (Q92918 whole entry T165E/S171E): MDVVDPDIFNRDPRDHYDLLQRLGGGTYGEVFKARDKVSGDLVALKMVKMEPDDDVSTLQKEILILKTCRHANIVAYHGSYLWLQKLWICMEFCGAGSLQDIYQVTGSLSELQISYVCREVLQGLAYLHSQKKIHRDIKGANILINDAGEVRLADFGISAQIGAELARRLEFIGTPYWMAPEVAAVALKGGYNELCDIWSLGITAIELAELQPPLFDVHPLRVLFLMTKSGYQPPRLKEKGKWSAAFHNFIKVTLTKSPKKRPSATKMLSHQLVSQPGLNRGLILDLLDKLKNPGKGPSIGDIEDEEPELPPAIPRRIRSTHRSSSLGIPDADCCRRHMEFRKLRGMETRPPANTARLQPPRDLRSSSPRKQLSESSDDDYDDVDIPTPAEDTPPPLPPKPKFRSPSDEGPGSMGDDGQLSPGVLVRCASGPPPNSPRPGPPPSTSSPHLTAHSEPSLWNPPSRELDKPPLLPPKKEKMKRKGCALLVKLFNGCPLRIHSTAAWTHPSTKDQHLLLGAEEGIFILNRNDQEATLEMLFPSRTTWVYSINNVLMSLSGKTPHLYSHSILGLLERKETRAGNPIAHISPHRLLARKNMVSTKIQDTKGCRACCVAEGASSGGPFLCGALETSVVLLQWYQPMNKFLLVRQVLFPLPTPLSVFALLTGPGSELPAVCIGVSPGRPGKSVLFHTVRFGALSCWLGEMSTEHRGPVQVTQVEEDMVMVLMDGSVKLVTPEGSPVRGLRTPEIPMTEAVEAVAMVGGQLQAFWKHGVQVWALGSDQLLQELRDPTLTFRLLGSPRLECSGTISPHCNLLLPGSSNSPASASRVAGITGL

| Structure (SMILES) | Ki [nM] |
| --- | --- |
| Cc1c(-c2cc3cc(Nc4cc5n(n4)CC(=O)N(C)CC5)ncc3cc2F)cnc2c1NCCS2(=O)=O [Compound 177, 2-((7-fluoro-6-(8-methyl-4,4-dioxido-2,3-dihydro-1H-pyrido[2,3-b][1,4]thiazin-7-yl)isoquinolin-3-yl)amino)-6-methyl-5,6-dihydro-4H-pyrazolo[1,5-d][1,4]diazepin-7(8H)-one] | 0.277 |
| Cc1c(N)cncc1-c1cc2cc(Nc3cc4n(n3)CC(=O)N([C@@H](C)C#N)CC4)ncc2cc1F (single isomer, unassigned) [Compound 154a] | 0.014 |
| CN[C@H]1CCN(c2cc(C)c(-c3cc4cc(Nc5cc6n(n5)CC(=O)N(C)CC6)ncc4cc3F)cn2)C1 (single isomer, unassigned) [Compound 206b] | 6.2 |
| Cc1c(-c2cc3cc(Nc4cc5n(n4)CC(=O)N([C@@H](C)C#N)CC5)ncc3cc2F)cnc2c1NCCO2 (single isomer, unassigned) [Compound 147a] | 0.014 |
| CNCc1cccc(-c2cc3cc(Nc4cc5n(n4)CC(=O)N(C)CC5)ncc3cc2F)c1C [Compound 217, 2-((7-fluoro-6-(2-methyl-3-((methylamino)methyl)phenyl)isoquinolin-3-yl)amino)-6-methyl-5,6-dihydro-4H-pyrazolo[1,5-d][1,4]diazepin-7(8H)-one] | 64 |
| Cc1c(CC#N)cncc1-c1cc(F)c2cnc(Nc3cc4n(n3)CC(=O)NCC4)cc2c1 [Compound 238, 2-(5-(8-fluoro-3-((7-oxo-5,6,7,8-tetrahydro-4H-pyrazolo[1,5-d][1,4]diazepin-2-yl)amino)isoquinolin-6-yl)-4-methylpyridin-3-yl)acetonitrile] | 0.076 |
| Cc1c(NCC(F)(F)F)cncc1-c1cc2cc(Nc3cc4n(n3)CC(=O)NCC4)ncc2cc1F [Compound 239, 2-((7-fluoro-6-(4-methyl-5-((2,2,2-trifluoroethyl)amino)pyridin-3-yl)isoquinolin-3-yl)amino)-5,6-dihydro-4H-pyrazolo[1,5-d][1,4]diazepin-7(8H)-one] | 0.062 |
| Cc1cc(C2CCCCO2)ncc1-c1cc2cc(Nc3cc4n(n3)CC(=O)N(C)CC4)ncc2cc1F (racemic) [Compound 218, (+/-)-2-((7-fluoro-6-(4-methyl-6-(tetrahydro-2H-pyran-2-yl)pyridin-3-yl)isoquinolin-3-yl)amino)-6-methyl-5,6-dihydro-4H-pyrazolo[1,5-d][1,4]diazepin-7(8H)-one] | 9 |
| Cc1c(-c2cc3cc(Nc4cc5n(n4)CC(=O)NCC5)ncc3cc2F)cnc2c1NCCC2 [Compound 192, 2-((7-fluoro-6-(4-methyl-5,6,7,8-tetrahydro-1,5-naphthyridin-3-yl)isoquinolin-3-yl)amino)-5,6-dihydro-4H-pyrazolo[1,5-d][1,4]diazepin-7(8H)-one] | 0.018 |
| Cc1c(N)cncc1-c1cc2cc(Nc3cc4n(n3)CC(=O)N(CC(C)(C)O)CC4)ncc2cc1F [Compound 158, 2-((6-(5-amino-4-methylpyridin-3-yl)-7-fluoroisoquinolin-3-yl)amino)-6-(2-hydroxy-2-methylpropyl)-5,6-dihydro-4H-pyrazolo[1,5-d][1,4]diazepin-7(8H)-one] | 0.023 |
| Cc1c(N)cncc1-c1cc2cc(Nc3cc4n(n3)CS(=O)(=O)N(C)CC4C)ncc2cc1F (centres unmarked) [Compound 113, 2-((6-(5-amino-4-methylpyridin-3-yl)-7-fluoroisoquinolin-3-yl)amino)-4,6-dimethyl-5,6-dihydro-4H,8H-pyrazolo[5,1-e][1,2,6]thiadiazepine 7,7-dioxide] | 1.2 |
| Cc1c(-c2cc3cc(Nc4cc5n(n4)CC(=O)N(C)CC54CC4)ncc3cc2F)cnc2c1NCC[C@@]2(C)O (single isomer, unassigned) [Compound 229b] | 0.016 |
| Cc1c(N)cncc1-c1cc2cc(Nc3cc4n(n3)CC(=O)N(C)CC43CC3)ncc2cc1F [Compound 111, 2-[[6-(5-amino-4-methyl-3-pyridyl)-7-fluoro-3-isoquinolyl]amino]-6-methyl-spiro[5,8-dihydropyrazolo[1,5-d][1,4]diazepine-4,1′-cyclopropane]-7-one] | 0.01 |
| CN1CCc2cc(Nc3cc4cc(-c5cncc(N)c5C(F)(F)F)c(F)cc4cn3)nn2CC1=O [Compound 227, 2-((6-(5-amino-4-(trifluoromethyl)pyridin-3-yl)-7-fluoroisoquinolin-3-yl)amino)-6-methyl-5,6-dihydro-4H-pyrazolo[1,5-d][1,4]diazepin-7(8H)-one] | 0.29 |
| Cc1c(-c2cc3cc(Nc4cc5n(n4)CC(=O)N(C)CC5)ncc3cc2F)cnc2c1[C@@](C)(O)CCO2 (single isomer, unassigned) [Compound 226a] | 18 |
| Cc1c(-c2cc3cc(Nc4cc5n(n4)CC(=O)N(C)CC5)ncc3cc2F)cnc2c1[C@@H](F)CCO2 (single isomer, unassigned) [Compound 235a] | 2.1 |
| Cc1c(-c2cc3cc(Nc4ccn([C@H](C)C#N)n4)ncc3cc2F)cnc2c1NCCO2 (single isomer, unassigned) [Compound 109a, 2-(3-((7-fluoro-6-(8-methyl-2,3-dihydro-1H-pyrido[2,3-b][1,4]oxazin-7-yl)isoquinolin-3-yl)amino)-1H-pyrazol-1-yl)propanenitrile] | 2.17 |
| Cc1c(-c2cc3cc(Nc4cc5n(n4)CC(=O)N(C)CC5)ncc3cc2F)cnc2c1NCC(C)(C)C2=O [Compound 240, 2-((7-fluoro-6-(4,7,7-trimethyl-8-oxo-5,6,7,8-tetrahydro-1,5-naphthyridin-3-yl)isoquinolin-3-yl)amino)-6-methyl-5,6-dihydro-4H-pyrazolo[1,5-d][1,4]diazepin-7(8H)-one] | 0.014 |
| Cc1c(-c2cc3cc(Nc4cc5n(n4)CC(=O)N(C)OC5)ncc3cc2F)cnc2c1NCCO2 [Compound 244, 2-((7-fluoro-6-(8-methyl-2,3-dihydro-1H-pyrido[2,3-b][1,4]oxazin-7-yl)isoquinolin-3-yl)amino)-6-methyl-4H,6H-pyrazolo[1,5-e][1,2,5]oxadiazepin-7(8H)-one] | 0.013 |
| Cc1c(N)cncc1-c1cc2cc(Nc3cc4n(n3)CC(=O)N(C)C[C@@]4(C)O)ncc2cc1F (single isomer, unassigned) [Compound 185a] | 0.169 |
| Cc1c(N)cncc1-c1cc(F)c2cnc(Nc3cc4n(n3)CC(=O)NCC43CC3)cc2c1 [Compound 225, 2′-((6-(5-amino-4-methylpyridin-3-yl)-8-fluoroisoquinolin-3-yl)amino)-5′,6′-dihydrospiro[cyclopropane-1,4′-pyrazolo[1,5-d][1,4]diazepin]-7′(8′H)-one] | 0.013 |
| CNC1CCN(c2cc(C)c(-c3cc4cc(Nc5cc6n(n5)CC(=O)N(C)CC6)ncc4cc3F)cn2)CC1 [Compound 199, 2-((7-fluoro-6-(4-methyl-6-(4-(methylamino)piperidin-1-yl)pyridin-3-yl)isoquinolin-3-yl)amino)-6-methyl-5,6-dihydro-4H-pyrazolo[1,5-d][1,4]diazepin-7(8H)-one] | 5 |
| Cc1c(-c2cc3cc(Nc4cc5n(n4)CC(=O)N(C)CC5)ncc3cc2F)cnc2c1NCC(C)(C)[C@@H]2O (single isomer, unassigned) [Compound 241b] | 0.265 |
| Cc1c(-c2cc3cc(Nc4cc5n(n4)CC(=O)N([C@@H](C)CO)CC5)ncc3cc2F)cnc2c1NCCO2 (single isomer, unassigned) [Compound 148a] | 0.013 |
| Cc1c(-c2cc3cc(Nc4cc5n(n4)CC(=O)N(C)CC5)ncc3cc2F)cnc2c1NCC[C@@H]2O (single isomer, unassigned) [Compound 236a] | 0.076 |
| COCCN1CCc2cc(Nc3cc4cc(-c5cnc6c(c5C)NCCO6)c(F)cc4cn3)nn2CC1=O [Compound 155, 2-((7-fluoro-6-(8-methyl-2,3-dihydro-1H-pyrido[2,3-b][1,4]oxazin-7-yl)isoquinolin-3-yl)amino)-6-(2-methoxyethyl)-5,6-dihydro-4H-pyrazolo[1,5-d][1,4]diazepin-7(8H)-one] | 0.013 |
| Cc1c(N)cncc1-c1cc2cc(Nc3cc4n(n3)Cc3nccn3CC4O)ncc2c(F)c1F (racemic) [Compound 170, (+/−)-8-((6-(5-amino-4-methylpyridin-3-yl)-7,8-difluoroisoquinolin-3-yl)amino)-5,6-dihydro-11H-imidazo[1,2-a]pyrazolo[1,5-d][1,4]diazepin-6-ol] | 0.035 |
| Cc1c(-c2cc3cc(Nc4cc5n(n4)CC(=O)N(C)CC5)ncc3cc2F)cnc2c1NCN(C)C2=O [Compound 187, 7-(7-fluoro-3-((6-methyl-7-oxo-5,6,7,8-tetrahydro-4H-pyrazolo[1,5-d][1,4]diazepin-2-yl)amino)isoquinolin-6-yl)-3,8-dimethyl-2,3-dihydropyrido[3,2-d]pyrimidin-4(1H)-one] | 0.25 |
| Cc1c(N)cncc1-c1ccc2cnc(Nc3cc4n(n3)CC(=O)N(C(C)C)CC4)cc2c1 [Compound 129, 2-[[6-(5-amino-4-methyl-3-pyridyl)-3-isoquinolyl]amino]-6-isopropyl-5,8-dihydro-4H-pyrazolo[1,5-d][1,4]diazepin-7-one] | 0.04 |
